Measurements taken from US20130072505A1, “6,9-Disubstituted Purine Derivatives and Their Use for Treating Skin” (priority 2006, published 2013).
Entries after “also recorded” stand apart in the source; their conditions may differ. Like-named read-outs stand apart in the source and are kept apart here. Marks after values point to notes of the source that are not given here. Values belong to the compound of their own block, whether it stands above or below them.

What was measured:
[1] = system: Human diploid fibroblasts (HCA cells); experiment: inhibition of senescence, β-galactosidase staining; assay type: cell-based; conditions: test compounds about 50 μM at each passage; for Senescent Cells (%) HCA25: passage 25; for Senescent Cells (%) HCA80: passage 80
Method: Inhibition of senescence by several of the 6,9-disubstituted purine derivatives of this invention was determined; kinetin was also evaluated as a control. […] The medium used for the cell cultivation was removed, the cells were washed twice in PBS, and fixed in 2-3 ml of fixing solution comprised of a 2% formaldehyde and 0.2% glutaraldehyde in PBS. The cells were incubated at room temperature for 5 minutes, and then washed twice with PBS. The cells were subsequently incubated at 37° C. (without CO2) for 1 to 16 hours in 2-3 ml of the solution comprising potassium ferricyanide (5 mM), potassium ferrocyanide (5 mM), MgCl2 (2 mM), X-gal (5-bromo-4-chloro-3-indolyl-β-D-galactopyranoside) (1 mg/ml), in citric/phosphate buffer (pH 6.0). The test compounds (about 50 μM) were added to the medium at each passage. […] In this experiment, only senescent cells were stained blue due to the action of β-galactosidase on the substrate.

[2] = system: Human forskin fibroblasts (cell line BJ); experiment: in vitro cytotoxic activity, MTT assay; assay type: cell-based; conditions: 72 hours; BJ fibroblasts at middle passage
Method: In vitro cytotoxic activity of several of the 6,9-disubstituted purine derivatives of this invention against human diploid fibroblasts was determined by standard MTT assay optimized for 96-well plates. The assay is based on spectrofotometric measurement of the product of metabolic conversion of MTT by mitochondria of living cells.
Human forskin fibroblasts (cell line BJ) at middle passage were maintained in 75 cm^2 plastic tissue culture flasks and cultured in cell culture medium (DMEM with 5 g/l glucose, 2 mM glutamine, 100 U/ml penicillin, 100 μg/ml streptomycin, 10% fetal calf serum, and sodium bicarbonate).
About 5,000 cells were seeded per well of the 96-well plate. After 24 hours the cell culture medium was replaced with the cell culture medium containing a test compound. The test compounds were evaluated at six 2-fold dilutions. The highest concentration used in the present study was usually 200 μM. In the case of compounds with limited solubility in the culture medium the highest concentration was adjusted. Every test compound was examined in five replicates. Cells with the test compounds were incubated for 72 hours at 37° C. in 5% CO2 atmosphere and 100% humidity. At the end of the incubation period, the culture medium was replaced with the cell culture medium containing MTT (0.5 mg/ml) and cells were incubated for another 3 hours. The formazan formed was solubilized by DMSO and absorbance at 570 nm was measured. Ability of the tested compounds to inhibit MTT reducing activity of the cells was calculated as IC=(Acompound exposed well−mean Ablank)/(mean Acontrol well−meanAblank)×100%. IC10, the drug concentration causing 10% decrease in MTT reducing activity, was calculated from the obtained dose response curves.

[3] = system: human myeloid leukemia K-562; experiment: in vitro cytotoxic activity, Calcein AM microtiter assay; assay type: cell-based; conditions: K562, 72 hours, highest concentration 166.7 μM
Method: (§1) In vitro cytotoxic activity of several of the 6,9-disubstituted purine derivatives of this invention was determined using a microtiter assay with Calcein AM and a panel of cell lines of different histogenetic and species origin; kinetin was also examined as a control. Because only metabolically active cells cleave Calcein AM (tetraacetoxymethyl ester of calcein), the intracellular concentration of calcein corresponds to the number of vital cells in the culture.
(§2) The following cell lines were used: human osteosarcoma (HOS); breast carcinoma MCF-7; human myeloid leukemia K-562; and mouse fibroblasts NIH3T3. The cells were maintained in Nunc/Corning 80 cm^2 plastic tissue culture flasks and cultured in cell culture medium (DMEM with 5 g/l glucose, 2 mM glutamine, 100 U/ml penicillin, 100 μg/ml streptomycin, 10% fetal calf serum, and sodium bicarbonate).
(§3) The cell suspensions were prepared and diluted according to the particular cell type and the expected target cell density (2.500-30.000 cells per well based on cell growth characteristics) were added by pipette (80 μl) into 96/well microtiter plates. Inoculates were allowed a pre-incubation period of 24 hours at 37° C. and 5% CO2 for stabilization. Four-fold dilutions of the intended test concentration were added at time zero in 20 μl aliquots to the microtiter plate wells. The test compounds were generally evaluated at six 4-fold dilutions. The highest well concentration used in the present study was 166.7 μM. All samples were examined in triplicates. Incubations of cells with the tested compounds was for 72 hours at 37° C., in 5% CO2 atmosphere and 100% humidity. At the end of the incubation period, Calcein AM was added to a final concentration of 1 μg/ml incubated for 1 hour. Fluorescence intensity (FI) was measured with a Labsystem FIA Reader Fluoroscan Ascent (UK). The cell survival (GI50) was calculated using the following equation: GI50=([…])/(mean FIcontrol well−mean FIblank)×100%. The GI50 value, the drug concentration lethal to 50% of the cells, was calculated from the obtained dose response curves.

breast carcinoma MCF-7 = experiment: as above; assay type: cell-based; conditions: Homo sapiens, MCF7; 72 hours; highest concentration 166.7 μM
Method: as §1, §2, §3

human osteosarcoma (HOS) = experiment: as above; assay type: cell-based; conditions: 72 hours, highest concentration 166.7 μM
Method: as §1, §2, §3

mouse fibroblasts NIH3T3 = experiment: as above; assay type: cell-based; conditions: read-out: GI50 NIH-3T3
Method: as §1, §2, §3

photodamaged facial skin = experiment: earlier clinical study of topically applied kinetin (0.1%); assay type: in vivo, human; conditions: kinetin 0.1% topical; for Mean Improvement from Baseline: Coarse Wrinkles / Mean Improvement from Baseline: Fine Wrinkles / Mean Improvement from Baseline: Mottled Hyperpigmentation / Mean Improvement from Baseline: Overall Skin Condition / Mean Improvement from Baseline: Roughness: expert evaluation; for Subjects Reporting Improvement from Baseline: Blotchiness / Subjects Reporting Improvement from Baseline: Color / Subjects Reporting Improvement from Baseline: Fine Wrinkles / Subjects Reporting Improvement from Baseline: Texture: self assessment
Description: This Example compares the clinical data for topically applied 6-furfurylamino-9-(2-tetrahydropyranyl)purine (0.10%) taken from Example 23 with similar clinical data generated for topically applied kinetin (0.1%) from an earlier study. The protocol for the earlier clinical trial for kinetin was similar to the protocol as described in Example 23 for the inventive compound; thirty two female volunteers completed the earlier kinetin study. This comparison is based on the expert evaluations and self evaluations of skin condition for eight and twelve week data for some of the parameters evaluated in both studies.

[4] = system: cultured human fibroblasts; conditions: cited from earlier work
[5] = system: Rat C6 glioma (ATCC No. CCL107); experiment: anti-inflammatory activity: isoproterenol-induced intracellular cAMP synthesis; assay type: cell-based; conditions: cAMP after 30 min with (−)-isoproterenol
Method: Anti-inflammatory activity of several of the 6,9-disubstituted purine derivatives of this invention was determined; kinetin was also evaluated as a control. Rat C6 glioma (ATCC No. CCL107) was cultivated in monolayer in serum-free chemically defined medium containing Ham's F10/minimal essential medium (1:1 v/v), 2 mM L-glutamine, 1% (v/v) minimal essential medium vitamins (100×), 1% (v/v) minimal essential medium nonessential amino acids (100×), 100 U/ml penicillin, […], and 30 nM sodium selenite. Incubation was performed at 37° C. in a humidified atmosphere. The assays were performed in the logaritmic growth phase at a density of 2.5×10^5 cells/cm^2. Intracellular cAMP synthesis was induced by addition of 5 mM (−)-isoproterenol; various amounts of test compounds were added at the same time as the (−)-isoproterenol. After 30 min incubation at 37° C., the medium was removed and the cellular amount of cAMP was determined using the cAMP-enzyme immunoassay kit from Amersham. The I50 value was determined from a dose-response curve in duplicate.

melting point: 137 to 138 °C
Compound: COc1ccc(CNc2ncnc3c2ncn3C2CCCCO2)cc1 (centres unmarked) [6-(4-methoxybenzylamino)-9-(2-tetrahydropyranyl)purine]
Senescent Cells (%) HCA50 [1]: 3%
Senescent Cells (%) HCA25 [1]: 4%
Senescent Cells (%) HCA80 [1]: 26%
IC10 (concentration causing 10% decrease in MTT reducing activity) [2]: >100 µM
GI50 [3]: > 167 µM
GI50 (breast carcinoma MCF-7): > 167 µM
GI50 (human osteosarcoma (HOS)): > 167 µM
GI50 (mouse fibroblasts NIH3T3; NIH3T3, 72 hours, highest concentration 166.7 μM): > 167 µM

Compound: c1coc(CNc2ncnc3nc[nH]c23)c1 [Kinetin, N6-furfuryl-adenine]
Mean Improvement from Baseline: Coarse Wrinkles (photodamaged facial skin; Eight Week Data): 4%
Mean Improvement from Baseline: Fine Wrinkles (photodamaged facial skin; Eight Week Data): 2%
Mean Improvement from Baseline: Mottled Hyperpigmentation (photodamaged facial skin; Eight Week Data): 25%*
Mean Improvement from Baseline: Overall Skin Condition (photodamaged facial skin; Eight Week Data): 3%
Mean Improvement from Baseline: Roughness (photodamaged facial skin; Eight Week Data): 35%
Mean Improvement from Baseline: TEWL (photodamaged facial skin; Eight Week Data): 13%
Subjects Reporting Improvement from Baseline: Blotchiness (photodamaged facial skin; Eight Week Data): 50%
Subjects Reporting Improvement from Baseline: Color (photodamaged facial skin; Eight Week Data): 53%
Subjects Reporting Improvement from Baseline: Fine Wrinkles (photodamaged facial skin; Eight Week Data): 57%
Subjects Reporting Improvement from Baseline: Texture (photodamaged facial skin; Eight Week Data): 77%
Mean Improvement from Baseline: Coarse Wrinkles (photodamaged facial skin; Twelve Week Data): 4%
Mean Improvement from Baseline: Fine Wrinkles (photodamaged facial skin; Twelve Week Data): 6%*
Mean Improvement from Baseline: Mottled Hyperpigmentation (photodamaged facial skin; Twelve Week Data): 25%*
Mean Improvement from Baseline: Overall Skin Condition (photodamaged facial skin; Twelve Week Data): 4%*
Mean Improvement from Baseline: Roughness (photodamaged facial skin; Twelve Week Data): 52%*
Mean Improvement from Baseline: TEWL (photodamaged facial skin; Twelve Week Data): 15%
Subjects Reporting Improvement from Baseline: Blotchiness (photodamaged facial skin; Twelve Week Data): 74%
Subjects Reporting Improvement from Baseline: Color (photodamaged facial skin; Twelve Week Data): 71%
Subjects Reporting Improvement from Baseline: Fine Wrinkles (photodamaged facial skin; Twelve Week Data): 71%
Subjects Reporting Improvement from Baseline: Texture (photodamaged facial skin; Twelve Week Data): 87%
Senescent Cells (%) HCA50 [1]: 5%
Senescent Cells (%) HCA25 [1]: 3%
Senescent Cells (%) HCA80 [1]: 38%
morphological and biochemical characteristics associated with serial passaging of cells [4]: delayed the onset and decreased the extent of many morphological and biochemical characteristics associated with serial passaging of cells
GI50 [3]: 164 µM
GI50 (breast carcinoma MCF-7): > 167 µM
GI50 (human osteosarcoma (HOS)): > 167 µM
GI50 (mouse fibroblasts NIH3T3; NIH3T3, 72 h): 155 µM
Anti-inflammatory Activity Effect [5]: inactive; also recorded: Not active
